Experimental data reported in patent US20080207759A1, “METHOD FOR PROTECTING MITOCHONDRIA” (SUCAMPO AG, priority 2007, published 2008).
No end group written: not given here.

Experiments:
[1] = system: human pulmonary artery smooth muscle cells (PASMC); experiment: ET-1 induced loss of mitochondrial membrane potential (JC-1 fluorescence); type: cell-based
Method: Human pulmonary Artery Smooth Muscle cells (PASMC) were grown to confluence on 10×22 mm glass cover slips in Clonetics smooth muscle basal media supplemented with growth hormones and fetal bovine serum. The cells on glass cover slips were then placed in 3 ml Hank's Balanced Salt Solution (HBSS) supplemented with […] of the mitochondrial dye JC-1 and incubated at 37° C. for 30 minute. The cells on the cover slips were then washed with 3 ml HBSS and mounted in a cuvette in a spectrofluorimeter with 3 ml HBSS. The emission spectra with excitation at 490 nm were taken over the range of 520 nm to 620 nm (150 sec). […] (0.1% acetone) FCCP, which leads complete depolarization of the mitochondrial membrane potential, was added at the end of each experiment. The spectra were normalized by dividing them by the fluorescence at 570 nm. The value obtained after FCCP treatment was assigned a value of 0 mV and the individual FCCP ratio was subtracted from each ratio point. The control (JC-1) fluorescence ratio was then assigned a value of +224 mV and the membrane potential [DmH(mV)] for each experimental point were calculated accordingly.
The cells were treated with 0.1% DMSO (vehicle for Compound 1), 1 nM Endothelin-1 (ET-1) or 1 nM ET-1 and 100 nM Compound 1 and scans were taken after 10, 30 and 60 minutes of the incubation. FCCP was added at the end and incubated for 60 minutes before taking scan. N=5 cover slips for all conditions.
The cells were treated with 0.1% DMSO or 1 nm Endothelin-1 (ET-1) and scans were taken after 30 minutes of incubation. The medium was then removed by washing the cells with fresh HBSS and scans were taken after 30 minutes. FCCP was added to the dish at the end and incubated for 60 minutes before taking scan. N=5 cover slips. In other set of 5 cover slips 1 nM Endothelin-1 (ET-1) and 100 nM Compound 1 were added and scans were taken after 30 minutes of incubation. The medium was then removed by washing the cells with fresh HBSS and 100 nM Compound 1 was added on top of it. Scans were taken after 30 minutes. FCCP was added at the end and incubated for 60 minutes before taking scan. N=3 cover slips.
The cells were treated with 1 nM Endothelin-1 (ET-1) and scans were taken after 30 minutes of incubation. The medium was then removed by washing the cells with fresh HBSS and HBSS supplemented with 100 nM Compound 1 was added to the cells. Scans were taken after 30 minutes. FCCP was added at the end and incubated for 60 minutes before taking scan. N=5 cover slips for all conditions.

[2] = system: Human lung alveolar type II cells (A549); experiment: Cytochrome c translocation into the cytosol induced by cigarette smoke extract (cytochrome c ELISA); type: cell-based; conditions: 100 nM Compound A with 1%, 2.5% or 5% CSE, 24 hrs
Method: Smoke from 8 cigarettes were bubbled slowly through 100 ml of serum free culture medium and the resulting suspension was filtered through 0.20 μm filter. The solution was considered as 100% cigarette smoke extract (CSE). Human lung alveolar type II cells (A549) were seeded 1.5×10^5 cells per well in a 96 well plate and incubated for 48 hrs. The cells were then treated separately with either 100 nM Compound A (13,14-dihydro-15-keto-16,16-difluoro-18(S)-methyl-PGE1) or 1%, 2.5% and 5% CSE. In other sets, 100 nM Compound A was added along with 1%, 2.5% or 5% CSE. All incubations were done at 37° C. for 24 hrs. After 24 hr treatment, the cells were washed with 0-4° C. PBS three times. Measurement of cytochrome c that was translocated into the cytosol, a marker of cellular injury, was performed with a cytochrome c ELISA assay kit according to the instructions provided with the kit.

Molecule: CCCCC(F)(F)C(=O)CCC1CCC(=O)C1CCCCCCC(=O)O (stereo not shown) [Compound 1, 11-deoxy-13,14-dihydro-15-keto-16,16-difluoro-PGE1]
- protection against ET-1 induced loss of membrane potential (in words) ([1]; 100 nM Compound 1 with 1 nM ET-1, 10, 30 and 60 min): protects against ET-1 induced loss of membrane potential at all times tested
- mitochondrial membrane potential ([1]; Example 1-2, 1 nM ET-1 along with 100 nM Compound 1, 30 min): 137.1±4.7 mV
- mitochondrial membrane potential ([1]; Example 1-2, after removal of ET-1 with continued 100 nM Compound 1, further 30 min): 115.3±2.3 mV
- mitochondrial membrane potential (rescue) ([1]; Example 1-3, ET-1 30 min, then ET-1 removed and 100 nM Compound 1 added, 30 min): 77.2±2.7 mV
- mitochondrial membrane potential ([1]; PASMC, 1 nM ET-1 and 100 nM Compound 1, 10 min, control taken as 224 mV): 114.2±2.6 mV
- mitochondrial membrane potential ([1]; PASMC, 1 nM ET-1 and 100 nM Compound 1, 30 min, control taken as 224 mV): 104.02±5.0 mV
- mitochondrial membrane potential ([1]; PASMC, 1 nM ET-1 and 100 nM Compound 1, 60 min, control taken as 224 mV): 73.1±2.4 mV

Molecule: CC[C@H](C)CC(F)(F)C(=O)CC[C@H]1[C@H](O)CC(=O)[C@@H]1CCCCCCC(=O)O [Compound A, 13,14-dihydro-15-keto-16,16-difluoro-18(S)-methyl-PGE1]
- cytochrome c translocation by CSE (in words) [2]: protected against cytochrome c translocation by CSE

Molecule: Endothelin-1 (CSCSSLMDKECVYFCHLDIIW; ends and bridges not checked; cysteine pairing not given here; UniProt P05305 53-73, looked up) [ET-1, reference compound]
- mitochondrial membrane potential ([1]; Example 1-2, ET-1 30 min, then ET-1 removed, scan after 30 min): 49.3±2.2 mV
- mitochondrial membrane potential ([1]; Examples 1-2 and 1-3, ET-1 alone, 30 min): 50.3±5.6 mV
- mitochondrial membrane potential ([1]; PASMC, 1 nM ET-1 alone, 10 min, control taken as 224 mV): 54.5±4.3 mV
- mitochondrial membrane potential ([1]; PASMC, 1 nM ET-1 alone, 30 min (Example 1-1), control taken as 224 mV): 28.0±2.8 mV
- mitochondrial membrane potential ([1]; PASMC, 1 nM ET-1 alone, 60 min, control taken as 224 mV): 13.1±1.0 mV
